From US5223169A, “Hydrolase surfactant systems and their use in laundering” (priority 1991, dated 1993)

Key:
Test in all cases: pH-stat assay of triglyceride emulsion hydrolysis; critical oil-to-surfactant ratio
[1] = test system: enzyme from P. putida ATCC 53552 (lipase GC-1065); assay type: biochemical, Pseudomonas putida
Source text: (§1) To determine the critical ratio for any specific enzyme-surfactant combination, aliquots of an aqueous solution, each containing a determined (constant) amount of the enzyme which is effective in the absence of any surfactant to hydrolyze the triglycerides in an oily stain on a determined (constant) amount of a fabric soiled by a determined (constant) amount of a triglyceride oil, are mixed with a determined (constant) amount of a surfactant which is within the range of the amounts conventionally present in home laundry solutions, e.g., from about 0.2 to 1.5. mM, and which is effective to inhibit the hydrolyzing activity of the enzyme. To the aliquots are added a hydrolysis activator, e.g., trioctanoin, in increasing amounts and the hydrolyzing activity of the enzyme in the various solutions is determined.
(§2) The experiments determining enzyme activity, such as those set out in Tables IA and IB, were carried out as follows:
(§3) The desired amount of triglyceride was weighed into an appropriate size beaker, on a Mettler balance (model number AE163). The corresponding amount of surfactant was added to the triglyceride, from a previously prepared aqueous surfactant stock solution, and the triglyceride and surfactant mixed manually. The sample was then adjusted to the desired weight using doubly distilled H2 O. Emulsification of the sample was carried out, prior to assaying enzyme activity, with a probe sonicator (Braun-Sonic model 2000), on ice, for approx. 2 minutes.
(§4) (ii) Enzyme Activity Measurement:
(§5) This was achieved by monitoring the rate of acid liberation, from the enzymatic hydrolysis of the triglycerides in the emulsion. The assay was initiated by adding approx. 2 ppm lipase to 10 ml of the prepared emulsion. The acid liberated was monitored by autotitration, on a Radiometer pH-stat (model number ABU80) to an endpoint of a pH of 10. Initial rates were recorded for the first 5 minutes of the reaction, and the reaction rates reported as μmole H^+ titrated . min ^-1 mgE^-1. Occasionally enzyme activity is reported as % total oil hydrolyzed in 14 min. In these examples, the reaction was allowed to run for 14 min. and the amount of acid titrated recorded. The % total oil (triglyceride) hydrolyzed was then calculated by dividing the recorded value with the theoretically calculated value assuming three equivalents of oleic acid was produced for each triglyceride equivalent. All assays were run at ambient temperatures.

Enzyme Amano P = biological target: T1, Enzyme Amano P (Burkholderia cepacia, UniProt P22088); assay type: biochemical, P. fluorescens
T1 construct: purchased Amano Co
T1 sequence (P22088 45-364): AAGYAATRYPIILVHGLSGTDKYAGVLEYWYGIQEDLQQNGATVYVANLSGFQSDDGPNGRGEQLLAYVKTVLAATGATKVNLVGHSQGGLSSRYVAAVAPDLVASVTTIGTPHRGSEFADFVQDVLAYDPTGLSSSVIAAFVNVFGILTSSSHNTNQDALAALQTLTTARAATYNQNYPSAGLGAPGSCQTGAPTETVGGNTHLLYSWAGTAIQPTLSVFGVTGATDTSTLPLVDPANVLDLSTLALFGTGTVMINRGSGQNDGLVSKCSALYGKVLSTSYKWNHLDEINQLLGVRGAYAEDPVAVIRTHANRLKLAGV
Source text: as §1, §2, §3, §4, §5

Enzyme Amano 68S = assay type: biochemical, P. sp.; conditions: for Critical Ratio / Enzyme Activity: surfactant conc.: SDS 1 mM
Source text: as §1, §2, §3, §4, §5

Enzyme Lipolase = biological target: T2, Enzyme Lipolase (Thermomyces lanuginosus, UniProt O59952); assay type: biochemical, A. oryzae; conditions: for Critical Ratio, LIPOLASE: trioctanoin emulsions, lipase ~2 ppm; for R, critical (minimum activating molar) ratio, LIPOLASE: triolein emulsions
T2 construct: purchased Novo Industri; host or cells: Aspergillus oryzae
T2 sequence (O59952 23-291): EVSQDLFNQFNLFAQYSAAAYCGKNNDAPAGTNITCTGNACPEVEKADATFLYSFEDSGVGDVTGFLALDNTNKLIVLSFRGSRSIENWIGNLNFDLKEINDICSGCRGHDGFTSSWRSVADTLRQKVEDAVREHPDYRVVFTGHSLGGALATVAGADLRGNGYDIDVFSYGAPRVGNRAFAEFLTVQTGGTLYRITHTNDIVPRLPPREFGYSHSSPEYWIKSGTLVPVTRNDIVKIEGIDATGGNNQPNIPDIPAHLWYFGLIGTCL
Source text: as §1, §2, §3, §4, §5

[2] = Table II, trioctanoin, surfactant conc.: SDS 2 mM, C12 LAS 1 mM, Neodol 25-3S 2 mM, Neodol 25-9 0.5 mM, Surfonic JL80X 0.5 mM, Triton X100 2 mM
[3] = Table Summary, second block of lines (corresponds to triolein Tables VI-IX)
[4] = Table VI, triolein, surfactant conc.: SDS 1 mM, C12 LAS 0.5 mM, Neodol 25-3S 1 mM, Neodol 25-9 0.5 mM, Surfonic JL80X 0.5 mM
[5] = triolein emulsions, high conc.: SDS 10 mM, C12 LAS 5 mM, Neodol 25-9 5 mM, Neodol 25-3S 5 mM, Surfonic JL-80X 2.5 mM
[6] = Table III, trioctanoin, surfactant conc.: SDS 2 mM, C12 LAS 1 mM, Neodol 25-3S 2 mM, Neodol 25-9 0.5 mM, Surfonic JL80X 0.5 mM
[7] = Table IV, trioctanoin, C12 LAS 0.2 mM, Neodol 25-3S 0.5 mM, Neodol 25-9 0.5 mM, Surfonic JL80X 0.5 mM
[8] = Table VIII, triolein, C12 LAS 0.5 mM, Neodol 25-3S 0.5 mM, Neodol 25-9 0.5 mM, Surfonic JL80X 2.5 mM

SMILES: CCCCCCCCCCCCc1ccc(S(=O)(=O)O)cc1 [C12 LAS]
- Critical Ratio [1, 2]: 5-10
- Enzyme Activity [1, 2]: 250 μmole H^+ released min^-1 mgE^
- critical ratio class, enzyme From ATCC 53552 [1, 3]: 0 (means a critical ratio of 1.0-10)
- Critical Ratio [1, 4]: 5-10
- Enzyme Activity [1, 4]: 50 μmole H^+ released min^-1 mgE^
- Critical Ratio ([1]; Table XVIII, triolein, Pseudomonas putida enzyme, surfactant 0.5 mM): 5-10
- Critical Ratio ([1]; Table XVIII, triolein, Pseudomonas putida enzyme, surfactant 5.0 mM): 1-5
- Specific Activity determined from initial rates, GC-1065, High ([1]; trioctanoin emulsions, high surfactant conc. as E41): 250 μeq acid/min.mg
- Critical Ratio, GC-1065, High ([1]; trioctanoin emulsions, lipase ~2 ppm, high surfactant conc.: SDS 10 mM, C12 LAS 5 mM, Neodol 25-9 5 mM, Neodol 25-3S 10 mM, Surfonic JL-80X 5 mM, Triton X-100 10 mM, C16 DAPS 10 mM): 5-10
- Critical Ratio, GC-1065, Low ([1]; trioctanoin emulsions, lipase ~2 ppm, low surfactant conc.: SDS 2 mM, C12 LAS 1 mM, Neodol 25-9 0.5 mM, Neodol 25-3S 2 mM, Surfonic JL-80X 0.5 mM, Triton X-100 2 mM, C16 DAPS 0.5 mM): 2-10
- Specific Activity determined from initial rates, GC-1065, Low ([1]; trioctanoin emulsions, low surfactant conc. as E40): 250 μeq acid/min.mg
- Activity (specific hydrolysis activity from initial rates), GC-1065, High ([1]; triolein emulsions, high conc. as E55): 60 μeq acid/min./mg
- R, critical (minimum activating molar) ratio, GC-1065, High [1, 5]: 1-5
- Activity (specific hydrolysis activity from initial rates), GC-1065, Low ([1]; triolein emulsions, low conc. as E54): 50 μeq acid/min./mg
- R, critical (minimum activating molar) ratio, GC-1065, Low ([1]; triolein emulsions, low conc.: SDS 1 mM, C12 LAS 0.5 mM, Neodol 25-9 0.5 mM, Neodol 25-3S 1 mM, Surfonic JL-80X 0.5 mM): 5-10
- Critical Ratio (Enzyme Amano P; [6]): 5-20
- Enzyme Activity (Enzyme Amano P; [6]): 70 μmole H^+ released min^-1 mgE^
- critical ratio class, Amano P (Enzyme Amano P; [3]): - (means a critical ratio of 10-100)
- Enzyme Activity (Enzyme Amano P; Table VII, triolein, surfactant conc.: SDS 1 mM, others 0.5 mM): 13 μmole H^+ released min^-1 mgE^
- Specific Activity determined from initial rates, AMANO P, High (Enzyme Amano P; trioctanoin emulsions, high surfactant conc. as E43): 70 μeq acid/min.mg
- Critical Ratio, AMANO P, High (Enzyme Amano P; trioctanoin emulsions, lipase ~2 ppm, high conc.: SDS 10 mM, C12 LAS 5 mM, Neodol 25-9 5 mM, Neodol 25-3S 20 mM, Surfonic JL-80X 5 mM): 5-10
- Critical Ratio, AMANO P, Low (Enzyme Amano P; trioctanoin emulsions, lipase ~2 ppm, low conc.: SDS 2 mM, C12 LAS 1 mM, Neodol 25-9 0.5 mM, Neodol 25-3S 2.0 mM, Surfonic JL-80X 0.5 mM): 5-10
- Specific Activity determined from initial rates, AMANO P, Low (Enzyme Amano P; trioctanoin emulsions, low surfactant conc. as E42): 70 μeq acid/min.mg
- Activity (specific hydrolysis activity from initial rates), AMANO P, High (Enzyme Amano P; triolein emulsions, high conc. as E57): 26 μeq acid/min./mg
- R, critical (minimum activating molar) ratio, AMANO P, High (Enzyme Amano P; [5]): 10-20
- Activity (specific hydrolysis activity from initial rates), AMANO P, Low (Enzyme Amano P; triolein emulsions, low conc. as E56): 13 μeq acid/min./mg
- R, critical (minimum activating molar) ratio, AMANO P, Low (Enzyme Amano P; triolein emulsions, low conc.: SDS 1 mM, others 0.5 mM): 10-20
- Critical Ratio (Enzyme Amano 68S; [7]): 5-10
- Enzyme Activity (Enzyme Amano 68S; [7]): 175 μmole H^+ released min^-1 mgE^
- critical ratio class, Amano 68S (Enzyme Amano 68S; [3]): - (means a critical ratio of 10-100)
- Critical Ratio (Enzyme Amano 68S; [8]): 10-20
- Enzyme Activity (Enzyme Amano 68S; [8]): 30 μmole H^+ released min^-1 mgE^
- Specific Activity determined from initial rates, AMANO 68S, High (Enzyme Amano 68S; trioctanoin emulsions, high surfactant conc. as E45): 200 μeq acid/min.mg
- Critical Ratio, AMANO 68S, High (Enzyme Amano 68S; trioctanoin emulsions, lipase ~2 ppm, high conc.: SDS 10 mM, C12 LAS 2 mM, Neodol 25-9 5 mM, Neodol 25-3S 10 mM, Surfonic JL-80X 5 mM): 1-5
- Critical Ratio, AMANO 68S, Low (Enzyme Amano 68S; trioctanoin emulsions, lipase ~2 ppm, low conc.: SDS 1 mM, C12 LAS 0.2 mM, Neodol 25-9 0.5 mM, Neodol 25-3S 0.5 mM, Surfonic JL-80X 0.5 mM): 5-10
- Specific Activity determined from initial rates, AMANO 68S, Low (Enzyme Amano 68S; trioctanoin emulsions, low surfactant conc. as E44): 175 μeq acid/min.mg
- Activity (specific hydrolysis activity from initial rates), AMANO 68S, High (Enzyme Amano 68S; triolein emulsions, high conc. as E59): 55 μeq acid/min./mg
- R, critical (minimum activating molar) ratio, AMANO 68S, High (Enzyme Amano 68S; triolein emulsions, high conc.: SDS 10 mM, C12 LAS 5 mM, Neodol 25-9 5 mM, Neodol 25-3S 5 mM, Surfonic JL-80X 2.5 mm): 10-20
- Activity (specific hydrolysis activity from initial rates), AMANO 68S, Low (Enzyme Amano 68S; triolein emulsions, low conc. as E58): 30 μeq acid/min./mg
- R, critical (minimum activating molar) ratio, AMANO 68S, Low (Enzyme Amano 68S; triolein emulsions, low conc.: SDS 1 mM, C12 LAS 0.5 mM, Neodol 25-9 0.5 mM, Neodol 25-3S 0.5 mM, Surfonic JL-80X 2.5 mM): 10-20
- Critical Ratio (Enzyme Lipolase; Table IX, triolein, C12 LAS 0.5 mM): 30-40
- critical ratio class, Lipolase (Enzyme Lipolase; [3]): - (means a critical ratio of 10-100)
- Critical Ratio (Enzyme Lipolase; Table V, trioctanoin, each surfactant 0.5 mM): 0.5-1
- Critical Ratio, LIPOLASE (Enzyme Lipolase; surfactant 0.5 mM): 0.5-1
- Critical Ratio, LIPOLASE (Enzyme Lipolase; surfactant 5 mM): 0.5-1
- R, critical (minimum activating molar) ratio, LIPOLASE (Enzyme Lipolase; surfactant 0.5 mM): 30-40
- R, critical (minimum activating molar) ratio, LIPOLASE (Enzyme Lipolase; surfactant 5.0): 40-50
